According to PMC6353898, “A Rational Approach for Creating Peptides Mimicking Antibody Binding” (Scientific Reports, 2019):
Read-outs that look alike come from different tables or passages of the source. Square brackets hold non-standard residues; d marks the D form. Ends that are not written are not given here. Peptide text beside a SMILES is read from it. * marks the point of attachment. Dolaproine = CO[C@@H]([C@@H]1CCCN1)[C@@H](C)C(=O)O; Dil = CC[C@H](C)[C@H](NC)[C@@H](CC(=O)O)OC; X1 = C[C@@H](N*)[C@@H](O)c1ccccc1; NMeV = CN[C@H](C(=O)O)C(C)C

How the values were obtained:
MDA MB 468 cells = assay: In vitro cytotoxicity (SRB), MDA MB 468; format: cell-based, human
Method: (§1) Cells were cultured to 80% confluency in T75 culture flasks using DMEM as growth medium, respectively. The cells were seeded onto 96 well plates and grown for 24 h to reach 50% confluency.
(§2) At the end of the incubation period, the cells were fixed using 10% trichloroacetic acid, followed by washing with distilled water and drying. The cellular proteins were stained using 50 μL of 0.4% Sulforhodamine B (SRB) in 1% acetic acid. Unbound SRB was washed with 1% acetic acid and the plates were dried overnight. The cell bound SRB was then solubilized using 200 μL of 10 mM unbuffered tris base solution. SRB absorbance was measured at 560 nm wavelength using a plate reader. The percent viabilities of cells were plotted as a function of log concentration and data was analyzed in GraphPad Prism Version 5.0 software (GraphPad Software Inc, CA, USA) using nonlinear-regression curve fit (variable slope four parameter equation).

HEK 293 cells = assay: In vitro cytotoxicity (SRB), HEK 293; format: cell-based, human
Method: as §1, §2

A431 cells = assay: In vitro cytotoxicity (SRB), A431; format: cell-based
Method: as §1, §2

[1] = molecular target: EGFR recombinant human protein (Homo sapiens, UniProt P00533); assay: Surface plasmon resonance, EGFR as immobilized surface; format: binding; conditions: SPR, 25 °C, PBS with 0.01% Tween 20 pH 7.4
EGFR recombinant human protein, sequence (P00533 25-645 limits assumed): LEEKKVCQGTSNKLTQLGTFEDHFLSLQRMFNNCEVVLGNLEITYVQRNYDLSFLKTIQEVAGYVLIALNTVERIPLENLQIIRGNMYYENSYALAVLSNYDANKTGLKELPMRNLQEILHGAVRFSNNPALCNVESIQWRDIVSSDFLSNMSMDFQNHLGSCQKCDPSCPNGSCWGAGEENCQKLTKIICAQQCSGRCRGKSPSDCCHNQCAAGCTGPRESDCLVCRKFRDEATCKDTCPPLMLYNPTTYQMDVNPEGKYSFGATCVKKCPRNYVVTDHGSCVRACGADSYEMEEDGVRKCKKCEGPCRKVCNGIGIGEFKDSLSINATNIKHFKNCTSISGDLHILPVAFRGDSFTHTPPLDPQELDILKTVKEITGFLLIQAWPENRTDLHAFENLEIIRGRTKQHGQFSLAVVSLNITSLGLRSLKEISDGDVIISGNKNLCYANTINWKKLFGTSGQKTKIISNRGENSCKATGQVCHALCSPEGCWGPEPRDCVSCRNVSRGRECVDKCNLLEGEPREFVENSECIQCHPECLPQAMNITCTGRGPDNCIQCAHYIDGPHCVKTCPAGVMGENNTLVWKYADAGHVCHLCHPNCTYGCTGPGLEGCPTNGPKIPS
Method: All experiments were carried out at 25 °C.

[2] = molecular target: bovine serum albumin (BSA) (Bos taurus, UniProt P02769); conditions: pH 7.4
bovine serum albumin (BSA), sequence (P02769 25-607): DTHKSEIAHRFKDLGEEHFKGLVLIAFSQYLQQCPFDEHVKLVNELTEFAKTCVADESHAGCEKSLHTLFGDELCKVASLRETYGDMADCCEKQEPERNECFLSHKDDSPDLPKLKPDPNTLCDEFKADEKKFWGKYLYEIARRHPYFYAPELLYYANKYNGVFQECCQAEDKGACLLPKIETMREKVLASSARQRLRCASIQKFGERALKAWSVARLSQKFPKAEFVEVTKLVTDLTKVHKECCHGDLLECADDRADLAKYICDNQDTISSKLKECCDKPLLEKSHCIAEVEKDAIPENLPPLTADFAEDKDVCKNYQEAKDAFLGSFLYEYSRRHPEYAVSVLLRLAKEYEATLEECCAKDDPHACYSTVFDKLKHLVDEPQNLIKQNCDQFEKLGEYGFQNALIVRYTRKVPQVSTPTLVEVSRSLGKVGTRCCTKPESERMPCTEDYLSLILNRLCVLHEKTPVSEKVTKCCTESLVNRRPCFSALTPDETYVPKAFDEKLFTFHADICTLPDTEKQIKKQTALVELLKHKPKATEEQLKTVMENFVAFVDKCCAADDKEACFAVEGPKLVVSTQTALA
Method: Surface plasmon resonance (SPR) studies were conducted using the Dual Channel SPR Spectrometer SPR7000DC (Reichert Technologies, New York, USA) to determine the binding affinity of peptides to EGFR protein. All experiments were carried out at 25 °C. Phosphate buffer saline (PBS) with 0.01% Tween 20 (pH7.4) was filtered and thoroughly degassed before use. EGFR (20 µg/mL) recombinant human protein and bovine serum albumin (BSA 20 µg/mL) were covalently attached to the left channel of 500,000 Da carboxymethylated dextran sensor chips using 1-ethyl-3-(3-dimethylaminopropyl)-carbodiimide (EDC) and N-hydroxysuccinimide (NHS) chemistry. The chips were then blocked by passing ethanolamine for 8 minutes at a rate of 10 µL/min.
All peptides were injected as soluble analytes in PBS with 0.01% Tween 20 at different concentrations with an injection speed at 15 µL/min. […] The bound surface was regenerated by sequential injections of 10 mM glycine in PBS (pH 2.5).
The sensorgrams from SPR were globally treated using Scrubber 2 software (BioLogic Software Pty Ltd, Australia), and kinetic constants kon and koff were determined by global fitting analyses of the titration curves using the 1:1 Lagmurian interaction model considering the mass transport. The equilibrium dissociation constant (KD) was calculated from the koff/kon ratio.

With `CC[C@H](C)[C@@H]([C@@H](CC(=O)N1CCC[C@H]1[C@H](OC)[C@@H](C)C(=O)N[C@H](C)[C@@H](O)c1ccccc1)OC)N(C)C(=O)[C@@H](NC(=O)[C@@H](NC)C(C)C)C(C)C` [MMAE, Monomethyl Auristatin E, reference compound] (H-[NMeV]V[Dil][Dolaproine]-X1) as the molecule, how does the IC50 (MDA MB 468 cells; SRB, 72 hours at 37 °C, 0.00001 to 10000 nM, read-out: IC50 (MDA MB 468)) read?
The IC50 was 0.0117 nM.

And the IC50 (HEK 293 cells; SRB, 72 hours at 37 °C, 0.00001 to 10000 nM, read-out: IC50 (HEK 293))?
The IC50 was 0.0626 nM.

And the IC50 (A431 cells; SRB, 72 hours at 37 °C, 0.00001 to 10000 nM, read-out: IC50 (A431))?
Its IC50 is 0.0246 nM.

SGEWAYDGYEPNFG [Pep25] was tested. Which “KD EGFR / binding to EGFR, no value” [1] did it give?
Its value is “did not bind”.

Which results are given for WSGENGPGFYDYEA [Pep11]?
IC50 (MDA MB 468 cells; 72 h): 420 nM; KD BSA / binding to BSA, no value [2]: did not show binding; IC50 (HEK 293 cells; 72 h): 1040 nM; IC50 (A431 cells; 72 h): 388 nM
